Experimental data taken from US8586538B2, “Method of treating a patient suffering from a bleeding disorder comprising administering an antibody against the A3-C1 of FVIII” (Stichting Sanquin Bloedvoorziening, priority 2002, dated 2013).

Tested on: LRP cluster II
Experiment: SPR binding of LRP cluster II to immobilized light chains (FVIII, FVa, FVIII/FV chimera)
Settings: LRP cluster II 100 nM; immobilized light chain
Procedure: FIG. 3. Binding of LRP cluster II to immobilized FVa light chain. […] Response is indicated as Resonance Units (RU) and is corrected for nonspecific binding, which was less than 5% relative to coated channels.
FIG. 6. Binding of LRP cluster II to the FVIII/FV^1811-1818 light chain chimera. ScFv EL14 at a CM5 sensor chip (67 fmol/mm^2) was incubated with either the recombinant wild-type FVIII light chain or the recombinant FVIII/FV^1811-1818 chimera till a density of 20 fmol/mm^2, in 150 mM NaCl, 50 mM Tris (pH 7.4). […] Bound LRP cluster II is expressed as the amount associated after 2 min.
The kinetics of protein interactions was determined by surface plasmon resonance (SPR) analysis, employing a BIAcore™2000 biosensor system (Biacore AS, Uppsala, Sweden). […] Association of analyte was assessed in 150 mM NaCl, 2 mM CaCl2, 0.005% (v/v) Tween® 20, and 20 mM Hepes (pH 7.4) for 2 min, at a flow rate of 20 μl/min at 25° C. […] The association (kon) and dissociation (koff) rate constants were determined by using the BIAevaluation software 3.1 (Biacore AB, Uppsala, Sweden). […] Equilibrium dissociation constants (kd) were calculated from the ratio koff/kon. […]

Sequence of LRP cluster II (Q07954 803-1182 limits assumed): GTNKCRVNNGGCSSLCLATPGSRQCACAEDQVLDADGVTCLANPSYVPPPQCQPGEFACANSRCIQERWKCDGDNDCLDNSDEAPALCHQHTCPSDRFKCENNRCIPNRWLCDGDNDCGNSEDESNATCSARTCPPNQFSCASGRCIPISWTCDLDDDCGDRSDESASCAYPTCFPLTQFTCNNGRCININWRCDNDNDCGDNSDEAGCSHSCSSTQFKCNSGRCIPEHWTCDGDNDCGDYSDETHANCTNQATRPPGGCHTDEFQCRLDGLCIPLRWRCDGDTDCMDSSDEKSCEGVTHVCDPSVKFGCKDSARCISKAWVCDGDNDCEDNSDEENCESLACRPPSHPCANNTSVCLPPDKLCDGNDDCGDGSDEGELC

Binding to LRP cluster II: did not interact
Substance: FVa light chain: light chain of thrombin-activated human Factor V purified from plasma
